Measured values published in patent US20170319562A1, “Compositions and Methods for Extended Therapy with Aminopyridines” (Acorda Therapeutics, Inc., priority 2009, published 2017).

Test system: patients with multiple sclerosis
Assay: MS-F202 Phase 2 double-blind placebo-controlled dose-comparison study
Assay type: in vivo, human
Set-up: change in overall Ashworth score, Mean: scale not given here
Protocol: The Phase 2, dose-ranging study (MS-F202) was a double-blind, randomized, placebo-controlled, parallel group study with dose levels of 4-aminopyridine-SR of 10 mg, 15 mg or 20 mg b.i.d. Patients were titrated to their randomized dose over two weeks; and the fixed-dose treatment phase was 12 weeks in duration. The prospectively defined primary efficacy variable was the percent change from baseline in average walking speed on the T25FW over the last three visits on the assigned stable dose. Other secondary efficacy variables were the other MSFC assessments (9-hole peg test and PASAT 3″), MSFC combined score, LEMMT, the 12-item Multiple Sclerosis Walking Scale (MSWS-12), Multiple Sclerosis Quality of Life Inventory (MSQLI), Ashworth spasticity score, Clinician Global Impression (CGI), and Subject Global Impression (SGI).
In the study MS-F202, the primary efficacy variable was the percent change from baseline in average walking speed measured using the T25FW. The following sections provide details on the different assessments.
A total of 206 patients with multiple sclerosis were randomized and 195 completed treatment (50/52 on 4-aminopyridine-SR 10 mg b.i.d., 49/50 on 15 mg b.i.d., 51/57 on 20 mg b.i.d. and 45/47 on placebo). The prospectively defined primary efficacy variable was the percent change from baseline in average walking speed on the T25FW over the last three visits on the assigned dose (Visits 7-9, the post-titration, stable dose period). The secondary efficacy variable was response, defined as a 20% or greater improvement in walking speed during the 12-week stable-dose double-blind treatment period (i.e. measurements at Visits 7-9). Other secondary efficacy variables were the other MSFC assessments (9-hole peg test and PASAT 3″), MSFC combined score, LEMMT, MSWS-12, MSQLI, Ashworth spasticity score, CGI, and SGI.
This example provides an embodiment of a method of treating subjects with a sustained release 4-aminopyridine formulation and a Responder analysis of the present invention. This was a Phase 2, double-blind, placebo-controlled, parallel group, 20-week treatment study in 206 subjects diagnosed with multiple sclerosis. This study was designed to investigate the safety and efficacy of three dose levels of 4-aminopyridine-SR, 10 mg b.i.d., 15 mg b.i.d., and 20 mg b.i.d. in subjects with clinically definite multiple sclerosis. The primary efficacy endpoint was an increase, relative to baseline, in walking speed, on the Timed 25 Foot Walk. Secondary efficacy measurements included lower extremity manual muscle testing in four groups of lower extremity muscles (hip flexors, knee flexors, knee extensors, and ankle dorsiflexors); the 9-Hole Peg Test and Paced Auditory Serial Addition Test (PASAT 3″); the Ashworth score for spasticity; Spasm Frequency/Severity scores; as well as a Clinician's (CGI) and Subject's (SGI) Global Impressions, a Subject's Global Impression (SGI), the Multiple Sclerosis Quality of Life Inventory (MSQLI) and the 12-Item Multiple Sclerosis Walking Scale (MSW S-12).
At the first visit (Visit 0), subjects were to enter into a two-week single-blind placebo run-in period for the purpose of establishing baseline levels of function. At Visit 2 subjects were to be randomized to one of four treatment groups (Placebo or 4-aminopyridine-SR 10 mg, 15 mg, 20 mg) and begin two weeks of double-blind dose-escalation in the active drug treatment groups (B, C and D). Group A were to receive placebo throughout the study. Subjects in the 10 mg (Group B) arm of the study took a dose of 10 mg approximately every 12 hours during both weeks of the escalation phase. The 15 mg (Group C) and 20 mg (Group D) dose subjects took a dose of 10 mg approximately every 12 hours during the first week of the escalation phase and titrated up to 15 mg b.i.d. in the second week. Subjects were to be instructed to adhere to an “every 12 hour” dosing schedule. […]

[1] = Fampridine Non-responders, 1st stbl
[2] = Fampridine Non-responders, 2nd stbl
[3] = Fampridine Non-responders, 3rd stbl
[4] = Fampridine Non-responders, titration
[5] = Fampridine Responders, 1st stbl
[6] = Fampridine Responders, 2nd stbl
[7] = Fampridine Responders, 3rd stbl
[8] = Fampridine Responders, titration

Nc1ccncc1 [4-aminopyridine]
rate of serious AE's (10 mg bid): 0%
rate of serious AE's (15 mg bid): 10%
rate of serious AE's (20 mg bid): 12%
mean reduction from baseline in Overall Ashworth Score, range over visits (4-aminopyridine Responders, double-blind): −0.18 to −0.11 units
change in overall Ashworth score, Mean [1]: −0.08
percent change in LEMMT, Mean [1]: 0.10
percent change in Walking Speed, Mean [1]: 3.5
change in overall Ashworth score, Mean [2]: −0.07
percent change in LEMMT, Mean [2]: 0.09
percent change in Walking Speed, Mean [2]: −0.2
change in overall Ashworth score, Mean [3]: 0.00
percent change in LEMMT, Mean [3]: 0.10
percent change in Walking Speed, Mean [3]: −6.5
change in overall Ashworth score, Mean [4]: −0.16
percent change in LEMMT, Mean [4]: 0.12
percent change in Walking Speed, Mean [4]: 8.3
change in overall Ashworth score, Mean [5]: −0.18
percent change in LEMMT, Mean [5]: 0.09
percent change in Walking Speed, Mean [5]: 24.6
change in overall Ashworth score, Mean [6]: −0.11
percent change in LEMMT, Mean [6]: 0.09
percent change in Walking Speed, Mean [6]: 29.0
change in overall Ashworth score, Mean [7]: −0.18
percent change in LEMMT, Mean [7]: 0.17
percent change in Walking Speed, Mean [7]: 27.3
change in overall Ashworth score, Mean [8]: −0.14
percent change in LEMMT, Mean [8]: 0.18
percent change in Walking Speed, Mean [8]: 27.4
post hoc Responder rate (consistently faster walking speeds on drug) (combined/pooled 4-aminopyridine-SR groups): approximately 37%
